Results taken from US20130029970A1 (priority 2009, published 2013).

Experiments:
human CB2 receptors = biological target: T1, human CB2 receptors (Homo sapiens, UniProt P34972); experiment: cAMP assay in HEK-293 cells, hCB2 agonist; assay type: cell-based
T1 construct: (cDNA clone) CNR0200000
Procedure, shortened: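 Stable hCB2 HEK-293 cells in HBSS/10 mM HEPES/0.1% fatty-acid-free BSA incubated 30 min at 37° C with compound; forskolin 90 uM in 3× compound mix.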

[1] = biological target: T2, recombinant human cannabinoid receptor CB1 (Homo sapiens, UniProt P21554); experiment: Cannabinoid receptor radioligand binding assay, [3H]-CP 55,940 displacement, hCB1
T2 construct: (cDNA clone) CNR01L000
Procedure, shortened: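 Displacement of 0.5 nM [3H]-CP 55,940 (1 μM unlabeled CP 55,940 for nonspecific) measured by filtration and scintillation counting. Binding ran 90 min at room temperature in pH 7.5 Tris buffer with 0.1% fatty-acid-free BSA, using recombinant hCB1 HEK-293 membranes at 2-10 μg protein.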

T1 sequence (P34972 whole entry): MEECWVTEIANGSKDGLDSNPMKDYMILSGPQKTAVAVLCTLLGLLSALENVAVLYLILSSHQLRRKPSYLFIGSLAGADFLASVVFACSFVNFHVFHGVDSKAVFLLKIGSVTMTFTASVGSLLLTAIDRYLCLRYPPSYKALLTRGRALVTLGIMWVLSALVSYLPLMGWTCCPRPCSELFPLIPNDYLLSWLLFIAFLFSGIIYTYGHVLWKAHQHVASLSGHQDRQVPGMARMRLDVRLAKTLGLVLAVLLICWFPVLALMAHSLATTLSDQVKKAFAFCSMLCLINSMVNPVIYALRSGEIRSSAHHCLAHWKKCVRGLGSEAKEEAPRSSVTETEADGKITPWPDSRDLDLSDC
T2 sequence (P21554 whole entry): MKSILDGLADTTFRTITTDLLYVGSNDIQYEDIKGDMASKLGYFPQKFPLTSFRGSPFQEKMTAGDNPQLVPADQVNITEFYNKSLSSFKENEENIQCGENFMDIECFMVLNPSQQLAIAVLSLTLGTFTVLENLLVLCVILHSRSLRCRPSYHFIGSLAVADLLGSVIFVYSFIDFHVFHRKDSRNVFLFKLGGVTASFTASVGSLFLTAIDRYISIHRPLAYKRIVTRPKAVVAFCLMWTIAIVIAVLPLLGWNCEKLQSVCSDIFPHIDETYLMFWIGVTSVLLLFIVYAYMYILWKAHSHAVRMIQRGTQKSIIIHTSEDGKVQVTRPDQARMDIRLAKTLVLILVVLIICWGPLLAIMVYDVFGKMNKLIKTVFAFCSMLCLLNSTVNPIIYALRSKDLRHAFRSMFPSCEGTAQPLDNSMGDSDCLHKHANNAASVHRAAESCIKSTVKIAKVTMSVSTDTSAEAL

Compound	EC50 (human CB2 receptors) [nM]	IC50 [1] [nM]
C=Cn1c(C)cc2cc(C(=O)c3cccc(Cl)c3Cl)sc21 [Comp 29]	100 to 1000	> 10000
Cc1cc2cc(C(=O)c3cccc(Cl)c3Cl)sc2n1CCN1CCOCC1 [Compound 1, (2,3-dichlorophenyl)(5-methyl-6-(2-morpholinoethyl)-6H-thieno[2,3-b]pyrrol-2-yl)methanone]	< 100	100 to 1000
CCCn1c(C)cc2cc(C(=O)c3cccc(Cl)c3Cl)sc21 [Compound 3, (2,3-Dichlorophenyl)(5-methyl-6-propyl-6H-thieno[2,3-b]pyrrol-2-yl)methanone]	< 100	1000 to 10000
Cc1cc2cc(C(=O)c3ccccc3Cl)sc2n1CCN1CCOCC1 [Compound 5, (2-Chlorophenyl)(5-methyl-6-(2-morpholinoethyl)-61-1-thieno[2,3-b]pyrrol-2-yl)methanone]	< 100	100 to 1000
Cc1cc2cc(C(=O)c3ccc(Cl)cc3)sc2n1CCN1CCOCC1 [Compound 6, (4-Chlorophenyl)(5-methyl-6-(2-morpholinoethyl)-6H-thieno[2,3-b]pyrrol-2-yl)methanone]	< 100	1000 to 10000
Cc1cc2cc(C(=O)c3cccc(F)c3F)sc2n1CCN1CCOCC1 [Compound 8, (2,3-Difluorophenyl)(5-methyl-6-(2-morpholinoethyl)-6H-thieno[2,3-b]pyrrol-2-yl)methanone]	< 100	1000 to 10000
Cc1cc2cc(C(=O)c3ccc(Cl)c(Cl)c3)sc2n1CCN1CCOCC1 [Compound 9, (3,4-Dichlorophenyl)(5-methyl-6-(2-morpholinoethyl)-6H-thieno[2,3-b]pyrrol-2-yl)methanone]	100 to 1000	1000 to 10000
Cc1cc2cc(C(=O)c3cccc4c3OCC4)sc2n1CCN1CCOCC1 [Compound 11, (2,3-Dihydrobenzofuran-7-yl)(5-methyl-6-(2-morpholinoethyl)-6H-thieno[2,3-b]pyrrol-2-yl)methanone]	< 100	100 to 1000
COc1ccccc1C(=O)c1cc2cc(C)n(CCN3CCOCC3)c2s1 [Compound 13, (2-Methoxyphenyl)(5-methyl-6-(2-morpholinoethyl)-6H-thieno[2,3-b]pyrrol-2-yl)methanone]	< 100	100 to 1000
Cc1cc2cc(C(=O)c3cccnc3Cl)sc2n1CCN1CCOCC1 [Compound 17, (2-Chloropyridin-3-yl)(5-methyl-6-(2-morpholinoethyl)-6H-thieno[2,3-b]pyrrol-2-yl)methanone]	< 100	> 10000
Cc1cc2cc(C(=O)c3cccc(Cl)c3Cl)sc2n1CCC1CCOCC1 [Compound 18, (2,3-Dichlorophenyl)(5-methyl-6-(2-(tetrahydro-2H-pyran-4-yl)ethyl)-6H-thieno[2,3-b]pyrrol-2-yl)methanone]	< 100	100 to 1000
COCCn1c(C)cc2cc(C(=O)c3cccc(Cl)c3Cl)sc21 [Compound 21, (2,3-Dichlorophenyl)(6-(2-methoxyethyl)-5-methyl-6H-thieno[2,3-b]pyrrol-2-yl)methanone]	< 100	100 to 1000
Cc1cc2cc(C(=O)c3cccc(Cl)c3Cl)sc2n1CCN1CCCCC1 [Compound 23, (2,3-Dichlorophenyl)(5-methyl-6-(2-(piperidin-1-yl)ethyl)-6H-thieno[2,3-b]pyrrol-2-yl)methanone]	< 100	100 to 1000
Cc1cc2cc(C(=O)c3cccc(Cl)c3Cl)sc2n1CC1CCCCN1C (stereo not drawn) [Compound 24, (2,3-Dichlorophenyl)(5-methyl-6((1-methylpiperidin-2-yl)methyl)-6H-thieno[2,3-b]pyrrol-2-yl)methanone]	< 100	100 to 1000
Cc1cc2cc(C(=O)c3cccc(Cl)c3Cl)sc2n1CCN1CCCC1 [Compound 28, (2,3-Dichlorophenyl)(5-methyl-6-(2-(pyrrolidin-1-yl)ethyl)-6H-thieno[2,3-b]pyrrol-2-yl)methanone]	< 100	100 to 1000
